Test results from patent US20230201213A1, “USE OF EZH2 INHIBITORS FOR TREATING CANCER” (Epizyme, Inc., priority 2020, published 2023).
Values joined by “and” are separate entries in the source; they are usually repeats but may differ in a detail not shown here. Identical values can stand only once.

Columns and labels:
Type in all cases: in vivo, human
[1] = system: intratumoral B cells; experiment: Multiplexed immunofluorescence (anti-CD20) of paired pre-/post-dose tumor biopsies, phase 2 mesothelioma study: intratumoral compartment
Procedure: (§1) In this example, subjects were enrolled in a phase 2, multicenter, open-label, 2-part, single-arm, 2-stage study to assess PK, safety and efficacy of continuous oral dosing with tazemetostat 800 mg, twice daily in adult subjects with relapsed or refractory malignant mesothelioma. Subjects continued on study treatment until disease progression, development of an unacceptable toxicity, withdrawal of consent, or termination of the study. Assessments of clinical response were performed about every 6 weeks while on study. Subjects discontinued study treatment at the time of disease progression, development of an unacceptable toxicity, withdrawal of consent, or termination of the study.
(§2) Tumor tissue biopsy samples were collected for pre-dose tumor sampling at screening and post-dose at or following the first or second tumor assessments (Cycle 3 or 5) according to local clinical site procedures, and tissue blocks processed for formalin fixation and paraffin embedding (FFPE). These FFPE samples were stored at ambient temperature. Pairs of pre- and post-treatment samples were available from 12 subjects. FFPE tissue blocks were available for 9 cases (18 tissue samples) and slides from 3 subjects were available.
(§3) Preparation of tumor tissue was performed as follows: tumor tissue sections of 4-5 micron thickness containing representative tumor cells as determined by a trained pathologist were serially-cut from the same block for two patient cases. Sections were mounted on Superfrost plus slides (Fisherbrand™) and air-dried overnight. Where possible, sections from pre- and post-treatment from the same patient case were mounted on the same slide to reduce reagent use and to diminish technical variability of multiplex, serial antibody staining between pre- and post-treatment samples. Pre- and post-treatment samples passed QC evaluation for 10 biopsy pairs, and these samples were advanced to multiplexed immunofluorescence (IF) staining.
(§4) IF staining of a panel of pairs of Cy3 and Cy5-labeled antibodies was performed. Initially an autofluorescence removal process was conducted. Subsequently, 8 rounds of antibody staining were done with deactivation of the fluorescent dyes via alkaline oxidation occurring prior to each subsequent round of antibody staining.
(§5) As many regions of interest (ROI) were selected for spectral analysis for each sample, and the number ranged from 5-39 across the collection of samples. Few of the ROI failed QC for each sample, typically no more than 1-2 in each sample. There resulting number of ROI successfully imaged and analyzed ranged from 4-39. In toto, 340 of 355 ROI passed QC assessment (95.8%).
(§6) B cell content based on the number of individual cells stained with anti-CD20 in intratumoral and stromal compartments was determined and B cell density was calculated on a mm^2 basis. Creation of intratumoral/stromal masks using PanCK and EMA staining allowed separation of intratumoral from stromal signals. The mean of B cell density from each ROI that passed QC was calculated for each pre- and post-treatment biopsy sample.

[2] = system: tumor-infiltrating B cells; experiment: Bulk RNA-sequencing of pre-/post-tazemetostat epithelioid sarcoma tumor samples; details: post- vs pre-tazemetostat
Procedure: as §1, with “open-label,” for “open-label, 2-part,”, “safety, tolerability” for “PK, safety”, “daily and 1600 mg once daily” for “daily”, “INI1-negative tumors” for “relapsed”, “relapsed/refractory synovial sarcoma. The patient cohorts in the study also included patients with epithelioid sarcoma.” for “refractory malignant mesothelioma.”, “8” for “6”
Tumor tissue biopsy samples from patients with epithelioid sarcoma were collected for pre-dose tumor sampling at screening and post-dose at or following the first or second tumor assessments (Cycle 3 or 5) according to local clinical site procedures, and tissue blocks processed for formalin fixation and paraffin embedding (FFPE), These FFPE samples were stored at ambient temperature. Pairs of pre- and post-treatment samples were available from 22 subjects.
Pre- and post-tazemetostat samples were analyzed using bulk RNA-sequencing to determine specific gene expression changes and also tumor-infiltrating B cell signatures. Several different B cell signatures and one Macrophage signature were analyzed including B cell memory_CIBERSORT, B cell memory_CIBERSORT-ABS, B cell memory_XCELL, B cell naïve_CIBERSORT, B cell naïve_CIBERSORT-ABS. B cell naïve_XCELL, B cell plasma_CIBERSORT, B cell plasma_CIBERSORT-ABS, B cell plasma_XCELL, B cell_EPIC, B cell_MCPCOUNTER, B cell_QUANTISEQ, B cell_TIMER, B cell_XCELL, Class-switched memory B cell_XCELL, and Macrophage_EPIC. […] Finally, two B cell-specific marker genes, CD19 and CD20, were also analyzed in pre- and post-tazemetostat administration samples.

[3] = system: tumor-associated B cells; experiment: RNA-SEQ gene signature analysis of pre-/post-tazemetostat mesothelioma tumor samples; details: post- vs pre-tazemetostat
Procedure: as §1, §2
The pre- and post-tazemetostat samples were also analyzed using RNA-SEQ to determine if the decrease in intratumoral B cells and stromal B cells could be observed genetically.

[4] = system: stromal B cells; experiment: Multiplexed immunofluorescence (anti-CD20) of paired pre-/post-dose tumor biopsies, phase 2 mesothelioma study: stromal compartment
Procedure: as §1, §2, §3, §4, §5, §6

[5] = 10 mesothelioma patients, post- vs pre-dose
[6] = mesothelioma, paired biopsies of 10 patients
[7] = one line per patient (Pt ID), post-dose biopsy (Cycle 3 or 5), tazemetostat 800 mg twice daily oral, relapsed or refractory malignant mesothelioma, CD20 staining, mean of ROI
[8] = one line per patient (Pt ID), post-dose vs pre-dose biopsy, 800 mg twice daily, mesothelioma, negative = increase

CCN(c1cc(-c2ccc(CN3CCOCC3)cc2)cc(C(=O)NCc2c(C)cc(C)[nH]c2=O)c1C)C1CCOCC1 [tazemetostat]
% decrease in intratumoral B cell density (mean of means) [1, 5]: 77%
median % decrease in intratumoral B cell density [1, 5]: 100%
B cell post-tazemetostat intratumoral, mean of means ([1]; mean over 10 patients, post-dose, pre-dose mean of means 35): 8 cell/mm^2
cases in which number and density of intratumoral B cells decreased to zero ([1]; mesothelioma, 10 patients): 5 cases
patients with a decrease of intratumoral B cells [1, 6]: 8/10
B cell post-tazemetostat intratumoral Mean (cell/mm^2) [1, 7]: 0 cell/mm^2 (5×) and 3 cell/mm^2 and 43 cell/mm^2 and 11 cell/mm^2 and 22 cell/mm^2 and 2 cell/mm^2
% decrease B cell per sqmm in post-dose samples (intratumoral) [1, 8]: 100% (5×) and 95% and −529% and 25% and 90%
increase in B cell content in one sample (intratumoral) ([1]; one sample that biased the mean decrease): > 500%
relative expression levels of several B cell signatures ([2]; FIG. 7A and 7B): showed decreases in relative expression levels
level of CD19 (B cell-specific marker gene) ([2]; FIG. 8): decreased
level of CD20 (B cell-specific marker gene) ([2]; FIG. 8): decreased
macrophage gene signature (Marcophage_EPIC) [3]: showed no change
relative expression level of six B cell gene signatures (B cell memory_XCELL, B cell_MCPCOUNTER, B cell naïve_CIBERSORT, B cell_QUANTISEQ, B cell naïve_CIBERSORT-ABS, B cell_XCELL) ([3]; FIG. 6): showed a decrease in relative expression level
% decrease in stromal B cell density (mean of means) [4, 5]: 90%
median % decrease in stromal B cell density [4, 5]: 99%
B cell post-tazemetostat stromal, mean of means ([4]; mean over 10 patients, post-dose, pre-dose mean of means 184): 18 cell/mm^2
cases in which number and density of stromal B cells decreased to zero ([4]; mesothelioma, 10 patients): 5 cases
patients with a decrease of stromal B cells [4, 6]: 9/10
B cell post-tazemetostat stromal Mean (cell/mm^2) [4, 7]: 0 cell/mm^2 (5×) and 1 cell/mm^2 and 3 cell/mm^2 and 101 cell/mm^2 and 72 cell/mm^2 and 6 cell/mm^2
% decrease B cell per mm^2 in post-dose samples (stromal) [4, 8]: 100% (4×) and 99% (3×) and 90% and −418% and 29%
